Measurements reported in ChEMBL document CHEMBL5537175, “Unraveling the Puzzle of Therapeutic Peptides: A Promising Frontier in Huntington's Disease Treatment” (J Med Chem, 2024).

Columns and labels:
RNA = experiment: Binding affinity to CAG repeat RNA (unknown origin) assessed as dissociation constant; format: nucleic-acid assay
Caspase-6 = biological target: T1, Caspase-6 (Homo sapiens, UniProt P55212); experiment: Inhibition of Caspase-6 activity (unknown origin) by FRET assay
T1 sequence (P55212 whole entry): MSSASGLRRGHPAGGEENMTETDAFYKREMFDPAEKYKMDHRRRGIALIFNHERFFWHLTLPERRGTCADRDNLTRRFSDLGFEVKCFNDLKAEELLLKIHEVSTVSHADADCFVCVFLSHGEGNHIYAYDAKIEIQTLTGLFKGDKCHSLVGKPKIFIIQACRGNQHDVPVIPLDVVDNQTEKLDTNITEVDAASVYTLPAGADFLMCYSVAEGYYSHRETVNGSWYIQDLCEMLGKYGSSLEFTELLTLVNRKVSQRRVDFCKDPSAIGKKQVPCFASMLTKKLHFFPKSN

Huntingtin [1] = biological target: T2, Huntingtin (Homo sapiens, UniProt P42858); experiment: Inhibition of HTT (unknown origin) aggregation at 5 uM relative to control
COS-7 = experiment: Cytotoxicity against african green monkey COS-7 cells assessed as reduction in cell growth; format: toxicity, cell-based; design: scale not given: the % may be the effect or the level left; conditions: chlorocebus aethiops
Huntingtin [2] = biological target: T2, Huntingtin; experiment: Binding affinity to HTT (unknown origin) assessed as dissociation constant by surface plasmon resonance assay
Huntingtin [3] = biological target: T2, Huntingtin; experiment: Inhibition of HTT (unknown origin) by ELISA method
[4] = Inhibition of YFP aggregation in african green monkey COS-7 cells at 70 nM relative to control; format: functional; conditions: Chlorocebus aethiops

T2 sequence (P42858 whole entry): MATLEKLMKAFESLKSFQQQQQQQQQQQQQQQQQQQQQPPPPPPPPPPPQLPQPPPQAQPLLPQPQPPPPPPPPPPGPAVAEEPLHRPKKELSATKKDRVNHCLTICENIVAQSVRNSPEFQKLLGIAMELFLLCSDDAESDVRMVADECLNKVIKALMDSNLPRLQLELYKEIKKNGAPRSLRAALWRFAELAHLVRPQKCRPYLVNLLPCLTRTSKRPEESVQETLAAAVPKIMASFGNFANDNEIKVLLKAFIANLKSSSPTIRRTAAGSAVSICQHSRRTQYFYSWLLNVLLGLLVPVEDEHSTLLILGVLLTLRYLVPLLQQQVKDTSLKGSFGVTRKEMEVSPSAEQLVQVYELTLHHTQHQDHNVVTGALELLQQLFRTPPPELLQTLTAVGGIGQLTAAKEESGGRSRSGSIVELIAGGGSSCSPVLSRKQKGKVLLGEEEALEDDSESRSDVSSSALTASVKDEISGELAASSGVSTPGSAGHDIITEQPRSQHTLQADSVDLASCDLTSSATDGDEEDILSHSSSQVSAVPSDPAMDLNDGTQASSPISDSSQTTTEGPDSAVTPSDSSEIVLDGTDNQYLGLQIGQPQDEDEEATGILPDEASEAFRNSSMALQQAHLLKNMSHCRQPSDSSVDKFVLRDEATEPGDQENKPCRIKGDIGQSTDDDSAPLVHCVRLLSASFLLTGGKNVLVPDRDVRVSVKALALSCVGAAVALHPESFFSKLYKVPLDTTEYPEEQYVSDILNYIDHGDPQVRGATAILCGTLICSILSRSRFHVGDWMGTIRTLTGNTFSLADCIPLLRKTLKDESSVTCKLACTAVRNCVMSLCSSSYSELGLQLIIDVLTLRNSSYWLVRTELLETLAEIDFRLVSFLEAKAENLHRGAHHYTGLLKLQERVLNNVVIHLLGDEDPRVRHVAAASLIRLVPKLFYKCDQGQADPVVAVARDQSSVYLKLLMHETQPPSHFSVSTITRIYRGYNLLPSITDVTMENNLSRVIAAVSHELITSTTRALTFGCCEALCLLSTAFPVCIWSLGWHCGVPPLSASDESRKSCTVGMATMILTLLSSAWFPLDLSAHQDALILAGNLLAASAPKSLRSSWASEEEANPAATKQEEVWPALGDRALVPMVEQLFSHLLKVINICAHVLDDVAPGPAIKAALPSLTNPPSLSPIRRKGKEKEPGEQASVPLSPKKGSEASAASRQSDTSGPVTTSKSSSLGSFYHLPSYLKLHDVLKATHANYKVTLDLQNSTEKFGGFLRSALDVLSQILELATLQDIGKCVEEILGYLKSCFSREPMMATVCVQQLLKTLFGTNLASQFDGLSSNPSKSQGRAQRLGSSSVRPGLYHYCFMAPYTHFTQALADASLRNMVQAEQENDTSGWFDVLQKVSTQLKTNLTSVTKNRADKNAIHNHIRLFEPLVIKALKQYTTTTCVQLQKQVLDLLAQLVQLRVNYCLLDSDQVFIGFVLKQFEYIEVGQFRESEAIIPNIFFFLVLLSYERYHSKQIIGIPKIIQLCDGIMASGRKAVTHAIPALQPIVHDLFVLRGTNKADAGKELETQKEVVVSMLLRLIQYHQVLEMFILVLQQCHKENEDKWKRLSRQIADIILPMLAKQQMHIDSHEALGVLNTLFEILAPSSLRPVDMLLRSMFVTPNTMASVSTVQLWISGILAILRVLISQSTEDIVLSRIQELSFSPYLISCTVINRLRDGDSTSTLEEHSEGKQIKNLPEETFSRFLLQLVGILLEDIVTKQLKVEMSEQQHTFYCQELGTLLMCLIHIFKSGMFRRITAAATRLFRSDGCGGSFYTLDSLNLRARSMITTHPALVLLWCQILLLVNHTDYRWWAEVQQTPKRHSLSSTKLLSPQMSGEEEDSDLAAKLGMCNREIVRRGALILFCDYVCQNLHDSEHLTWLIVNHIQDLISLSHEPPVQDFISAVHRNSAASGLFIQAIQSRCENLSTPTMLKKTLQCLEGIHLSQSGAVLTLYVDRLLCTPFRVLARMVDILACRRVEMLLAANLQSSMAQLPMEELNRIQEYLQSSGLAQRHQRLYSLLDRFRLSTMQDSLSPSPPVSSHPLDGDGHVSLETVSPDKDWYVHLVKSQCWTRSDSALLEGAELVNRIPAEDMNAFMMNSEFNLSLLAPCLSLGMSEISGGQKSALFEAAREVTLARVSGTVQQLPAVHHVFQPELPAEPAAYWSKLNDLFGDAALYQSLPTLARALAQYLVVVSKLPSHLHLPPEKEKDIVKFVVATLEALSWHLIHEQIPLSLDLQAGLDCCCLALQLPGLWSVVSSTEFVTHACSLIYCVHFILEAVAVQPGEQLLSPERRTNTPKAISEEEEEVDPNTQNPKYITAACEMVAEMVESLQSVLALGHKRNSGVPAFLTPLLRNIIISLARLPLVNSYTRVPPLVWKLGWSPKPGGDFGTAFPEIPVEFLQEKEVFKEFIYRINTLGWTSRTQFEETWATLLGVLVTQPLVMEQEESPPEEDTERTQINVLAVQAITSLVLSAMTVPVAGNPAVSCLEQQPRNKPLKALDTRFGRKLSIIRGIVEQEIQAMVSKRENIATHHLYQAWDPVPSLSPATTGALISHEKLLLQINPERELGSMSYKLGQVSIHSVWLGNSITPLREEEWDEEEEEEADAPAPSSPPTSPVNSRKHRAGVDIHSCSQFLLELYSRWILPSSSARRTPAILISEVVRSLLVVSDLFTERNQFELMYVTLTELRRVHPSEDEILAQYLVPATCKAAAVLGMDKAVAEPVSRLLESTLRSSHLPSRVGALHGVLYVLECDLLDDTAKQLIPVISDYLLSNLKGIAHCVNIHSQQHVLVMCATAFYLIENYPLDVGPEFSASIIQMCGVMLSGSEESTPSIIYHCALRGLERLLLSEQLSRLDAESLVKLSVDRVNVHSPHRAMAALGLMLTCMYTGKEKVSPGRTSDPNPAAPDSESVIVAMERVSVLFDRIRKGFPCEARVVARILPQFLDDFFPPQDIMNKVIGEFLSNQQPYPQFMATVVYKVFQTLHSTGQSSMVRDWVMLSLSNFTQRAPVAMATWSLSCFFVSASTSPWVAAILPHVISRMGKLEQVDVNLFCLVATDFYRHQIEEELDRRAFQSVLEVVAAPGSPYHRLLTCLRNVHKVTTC

Substance Ac-DGKSKGIAYIEFK-NH2 has a Kd (RNA) of 0.33 nM.
H-AEIRLVSKDGKSKGIAYIEFK-OH gave a Kd (RNA) of 660 nM.
Work on H-DGKSKGIAYIEFK-OH yielded a Kd (RNA) of 8.37 nM.
Work on H-GRKKRRQRRRPPQSSEIVLDGTDN-OH yielded an IC50 (Caspase-6) of 12.1 nM.
H-MATLEKLMKAFESLKSF-OH gave an inhibition (Huntingtin [1]) of 20%.
Work on H-RQIKIWFQNRRMKWKKSNWKWWPGIFD-OH yielded an Activity (COS-7) of 30.2%.
H-SNWKWWPGIFD-OH gave a Kd (Huntingtin [2]) of 5700 nM and an IC50 (Huntingtin [3]) of 5000 nM.
H-WKWWPGIFDYGRKKRRQRRR-OH gave an inhibition at 0.07 µM [4] of 81.2%.
